Reference: patent US9113629B2, “4-amino-6-(4-substituted-phenyl)-picolinates and 6-amino-2-(4-substituted-phenyl)-pyrimidine-4-carboxylates and their use as herbicides” (DOW AGROSCIENCES LLC, priority 2013, dated 2015)
Where two headings read alike, the source gives them in different places.

Columns and labels:
[1] = system: Key Broadleaf Weed and Crop Species; assay: Post-emergent Test II herbicidal activity (Table 5); format: in vivo; settings: post-emergence, 336 h, post-emergent, 14 days after application; for pest or weed control at 70 g/ha: 70 g ai/ha; for pest or weed control at 140 g/ha: 140 g ai/ha
Method in brief: (§1)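 Scoring: visual, 0–100% injury at 14 d versus untreated. Treatment: overhead track spray, 187 L/ha, onto plants at the first–second true leaf stage. Growth: greenhouse, ~15 h light, 23–29 °C day, 22–28 °C night.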

[2] = system: Key Grass and Sedge Weeds as well as Grass Crops; assay: Post-emergent Test II herbicidal activity (Table 6); format: in vivo; settings: post-emergence, 336 h; for pest or weed control at 70 g/ha: application rate 70 g ai/ha; for pest or weed control at 140 g/ha: application rate 140 g ai/ha
Method in brief: as §1

[3] = ABUTH: velvetleaf (Abutilon theophrasti), read-out: Visual Growth Reduction (%) 14 Days After Application ABUTH
[4] = AMARE: redroot pigweed (Amaranthus retroflexus), read-out: Visual Growth Reduction (%) 14 Days After Application AMARE
[5] = BRSNN: oilseed-rape, canola (Brassica napus), read-out: Visual Growth Reduction (%) 14 Days After Application BRSNN
[6] = CHEAL: lambsquarters (Chenopodium album), read-out: Visual Growth Reduction (%) 14 Days After Application CHEAL
[7] = EPHHL: wild poinsettia (Euphorbia heterophylla), read-out: Visual Growth Reduction (%) 14 Days After Application EPHHL
[8] = HELAN: sunflower (Helianthus annuus), read-out: Visual Growth Reduction (%) 14 Days After Application HELAN
[9] = VIOTR: wild pansy (Viola tricolor), read-out: Visual Growth Reduction (%) 14 Days After Application VIOTR
[10] = CYPES: yellow nutsedge (Cyperus esculentus), read-out: Visual Growth Reduction (%) 14 Days After Application, CYPES
[11] = DIGSA: crabgrass (Digitaria sanguinalis), read-out: Visual Growth Reduction (%) 14 Days After Application, DIGSA
[12] = ECHCG: barnyardgrass (Echinochloa crus-galli), read-out: Visual Growth Reduction (%) 14 Days After Application, ECHCG
[13] = ORYSA: rice (Oryza sativa), read-out: Visual Growth Reduction (%) 14 Days After Application, ORYSA
[14] = SETFA: giant foxtail (Setaria faberi), read-out: Visual Growth Reduction (%) 14 Days After Application, SETFA
[15] = SORVU: grain sorghum (Sorghum vulgare), read-out: Visual Growth Reduction (%) 14 Days After Application, SORVU
[16] = TRZSS (wheat, Triticum aestivum), read-out: Visual Growth Reduction (%) 14 Days After Application, TRZSS
[17] = ZEAMX: maize, corn (Zea mays), read-out: Visual Growth Reduction (%) 14 Days After Application, ZEAMX

N#Cc1ccc(-c2nc(C(=O)O)c(Cl)c(N)c2F)c(F)c1 [Compound 65, 4-amino-3-chloro-6-(4-cyano-2-fluorophenyl)-5-fluoropicolinic acid]
30 to 44%: pest or weed control at 140 g/ha [1, 5] | pest or weed control at 140 g/ha [1, 9]
60 to 74%: pest or weed control at 70 g/ha [1, 6]
95 to 100%: pest or weed control at 70 g/ha [1, 4] | pest or weed control at 140 g/ha [1, 4] | pest or weed control at 70 g/ha [1, 7] | pest or weed control at 140 g/ha [1, 7] | pest or weed control at 140 g/ha [1, 8]
85 to 94%: pest or weed control at 70 g/ha [1, 8]
75 to 84%: pest or weed control at 140 g/ha [1, 6]
0 to 29%: pest or weed control at 70 g/ha [1, 3] | pest or weed control at 140 g/ha [1, 3] | pest or weed control at 70 g/ha [1, 5] | pest or weed control at 70 g/ha [1, 9] | pest or weed control at 70 g/ha [2, 10] | pest or weed control at 140 g/ha [2, 10] | pest or weed control at 70 g/ha [2, 11] | pest or weed control at 140 g/ha [2, 11] | pest or weed control at 70 g/ha [2, 12] | pest or weed control at 140 g/ha [2, 12] | pest or weed control at 70 g/ha [2, 13] | pest or weed control at 140 g/ha [2, 13] | pest or weed control at 70 g/ha [2, 14] | pest or weed control at 140 g/ha [2, 14] | pest or weed control at 70 g/ha [2, 15] | pest or weed control at 140 g/ha [2, 15] | pest or weed control at 70 g/ha [2, 16] | pest or weed control at 140 g/ha [2, 16] | pest or weed control at 70 g/ha [2, 17] | pest or weed control at 140 g/ha [2, 17]
